# What was measured:
# MMP1 gene expression = assay: Particle-induced MMP1 gene expression in human epidermal keratinocytes (qRT-PCR); assay type: cell-based; conditions: for MMP1 24 h gene expression / MMP-1 24 h gene expression: SRM1650b; for MMP1 24 h gene expression: control = 1, particles alone 1.3 ± 0.03; for MMP-1 24 h gene expression: untreated = 1, particles alone 1.57 ± 0.05
# Experimental: (§1) Gene expression was analyzed via qRT-PCR.
# POMC gene expression = assay: Particle-induced POMC gene expression in human epidermal keratinocytes (qRT-PCR); assay type: cell-based; conditions: for POMC 6 h gene expression: control = 1, particles alone 1.5 ± 0.031
# Experimental: as §1
# (§2) Ginger root CO2 extract has been dissolved in DMSO and diluted in medium. […] Gene expression was analyzed via qRT-PCR. […] Table 9 compiles the results for ginger root CO2 extract altered POMC and IL-6 gene expression
# (§3) Purple coneflower pressed juice has been dissolved directly in medium. […] Gene expression was analyzed via qRT-PCR. […] Table 10 compiles the results for purple coneflower pressed juice altered POMC and IL-6 gene expression
# (§4) A mixture of sclareloide and ginger root CO2 extract has been dissolved directly in medium. […] Gene expression was analyzed via qRT-PCR. […] Table 11 compiles the results for […] altered POMC and IL-6 gene expression
# IL-6 gene expression = assay: Particle-induced IL-6 gene expression in human epidermal keratinocytes (qRT-PCR); assay type: cell-based; conditions: for IL-6 6 h gene expression: SRM1650b
# Experimental: as §1, §2, §3, §4
# CYP1A1 gene expression = assay: Particle-induced CYP1A1 gene expression in human epidermal keratinocytes (qRT-PCR); conditions: for CYP1A1 Induction mean ± SE: NHEK adult; for CYP1A1 Induction mean ± SE / CYP1A1 gene expression, Induction mean ± SE: 10 μM; for CYP1A1 gene expression, Induction mean ± SE: indoor particles Huber990 1.5 μg/cm2
# Experimental: Adult human epidermal keratinocytes were cultured in keratinocyte medium without BPE and without EGF for 24 h prior to addition of model particles (see table 1.1). The model particles were suspended in phosphate buffered saline and were sonicated for 1 min and then directly added to the keratinocytes at 1.5 μg/cm^2. […] Solutions containing the compound with maximal 0.1% DMSO were applied 2 h prior to treatment with the model particles. Gene expression was analyzed via qRT-PCR.
# AhR = biological target: T1, AhR (Homo sapiens, UniProt P35869); assay: AhR antagonism, luciferase reporter gene assay in XRE-HepG2 cells; assay type: cell-based; conditions: 16 h or 24 h
# T1 construct: endogenous in cells; host or cells: XRE-HepG2 (HepG2 carrying an XRE-driven luciferase reporter)
# T1 sequence (P35869 11-848): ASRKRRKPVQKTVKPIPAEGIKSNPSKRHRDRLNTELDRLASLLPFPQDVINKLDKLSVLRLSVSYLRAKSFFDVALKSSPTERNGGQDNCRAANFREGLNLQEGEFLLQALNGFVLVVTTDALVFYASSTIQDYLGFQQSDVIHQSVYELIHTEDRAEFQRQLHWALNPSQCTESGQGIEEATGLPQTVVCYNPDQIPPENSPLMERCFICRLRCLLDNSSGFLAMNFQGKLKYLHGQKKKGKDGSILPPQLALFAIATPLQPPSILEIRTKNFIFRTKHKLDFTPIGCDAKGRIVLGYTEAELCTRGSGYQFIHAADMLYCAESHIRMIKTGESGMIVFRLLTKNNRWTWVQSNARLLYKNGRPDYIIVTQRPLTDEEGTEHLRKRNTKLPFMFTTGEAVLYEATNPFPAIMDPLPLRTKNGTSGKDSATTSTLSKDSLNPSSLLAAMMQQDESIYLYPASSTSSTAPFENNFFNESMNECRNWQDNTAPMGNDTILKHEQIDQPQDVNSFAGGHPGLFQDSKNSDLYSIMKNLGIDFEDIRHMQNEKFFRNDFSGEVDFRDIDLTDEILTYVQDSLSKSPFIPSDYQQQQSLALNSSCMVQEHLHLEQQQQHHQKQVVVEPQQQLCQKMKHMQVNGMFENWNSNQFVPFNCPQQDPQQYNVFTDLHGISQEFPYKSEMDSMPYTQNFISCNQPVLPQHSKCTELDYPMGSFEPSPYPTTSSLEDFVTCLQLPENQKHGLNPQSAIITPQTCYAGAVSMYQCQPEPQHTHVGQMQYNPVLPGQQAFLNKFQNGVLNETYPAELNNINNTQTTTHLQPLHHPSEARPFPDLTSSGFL
# Experimental: For reporter gene analyses, 1×10^5 XRE-HepG2 cells/well were seeded in 12-well plates and cultured overnight. Cells were treated for 16 h or 24 h with the indicated substances.
# Cell lysates were prepared, and luciferase activities were determined using the luciferase assay system. Protein concentrations were determined by using the BC Assay protein quantification kit. Luciferase activities were normalized against the protein concentration of each probe. Each sample was analyzed in triplicate.
# POMC protein level = assay: Particle-induced POMC protein release from HaCaT cells (ELISA of supernatant); assay type: cell-based
# Experimental: II) HaCaT cells are seeded into a 96-well plate with 0.3×10^4 cells/well. After incubation over night the test compound (10 μM Sclareolide) is added to the cells and the plate is incubated for two more hours. Then diesel exhaust particles (SRM 1650b) are added to a final concentration of 1.5 μg/cm2 and the plate incubated for 24 hours. The supernatant is transferred into an ELISA plate (Cusabio, CSB-E09307 h) and the POMC protein level quantified using ELISA technique performed according to the manufacturer's instructions.
molecule,measurement,setting,value
"E/Z-2-benzylindene-5,6-dimethoxy-3,3-dimethylindan-1-one [BDDI]",particle induced MMP1 gene expression (result in words),MMP1 gene expression,capable to inhibit
same,MMP1 24 h gene expression,MMP1 gene expression; 1 μM,0.7 ± 0.014
same,MMP1 24 h gene expression,MMP1 gene expression; 2.5 μM,0.8 ± 0.016
same,MMP1 24 h gene expression,MMP1 gene expression; 10 μM,0.5 ± 0.022
same,particle induced POMC gene expression (result in words),POMC gene expression,capable to inhibit
same,POMC 6 h gene expression,"POMC gene expression; 1 μM, SRM1650b",0.9 ± 0.018
same,POMC 6 h gene expression,"POMC gene expression; 2.5 μM, SRM1650b",1.1 ± 0.02
same,POMC 6 h gene expression,"POMC gene expression; 10 μM, SRM1650b",0.9 ± 0.001
same,particle induced IL-6 gene expression (result in words),IL-6 gene expression,capable to inhibit
same,IL-6 6 h gene expression,"IL-6 gene expression; 1 μM, control = 1, particles alone 1.4 ± 0.041",0.9 ± 0.067
same,IL-6 6 h gene expression,"IL-6 gene expression; 2.5 μM, control = 1, particles alone 1.4 ± 0.041",0.6 ± 0.006
same,IL-6 6 h gene expression,"IL-6 gene expression; 10 μM, control = 1, particles alone 1.4 ± 0.041",0.5 ± 0.01
same,CYP1A1 Induction mean ± SE,"CYP1A1 gene expression; SRM1650 1.5 μg/cm2, 6 h, untreated = 1, particles alone 2.90 ± 0.12",0.02 ± 0.00
same,CYP1A1 Induction mean ± SE,"CYP1A1 gene expression; SRM1650 1.5 μg/cm2, 6 h, untreated = 1, particles alone 5.33 ± 0.07",1.83 ± 0.03
same,CYP1A1 Induction mean ± SE,"CYP1A1 gene expression; SRM1650 1.5 μg/cm2, 24 h, untreated = 1, particles alone 16.53 ± 0.98",4.17 ± 0.09
same,CYP1A1 Induction mean ± SE,"CYP1A1 gene expression; SRM1650 1.5 μg/cm2, 24 h, untreated = 1, particles alone 23.23 ± 0.64",8.77 ± 0.09
same,CYP1A1 Induction mean ± SE,"CYP1A1 gene expression; SRM2975 1.5 μg/cm2, 6 h, untreated = 1, particles alone 1.03 ± 0.03 (n.s.)",0.20 ± 0.00
same,CYP1A1 Induction mean ± SE,"CYP1A1 gene expression; SRM2975 1.5 μg/cm2, 6 h, untreated = 1, particles alone 2.07 ± 0.07",0.05 ± 0.0003
same,CYP1A1 Induction mean ± SE,"CYP1A1 gene expression; SRM2975 1.5 μg/cm2, 24 h, untreated = 1, particles alone 4.90 ± 0.17",0.01 ± 0.00
same,CYP1A1 Induction mean ± SE,"CYP1A1 gene expression; SRM2975 1.5 μg/cm2, 24 h, untreated = 1, particles alone 5.10 ± 0.06",0.60 ± 0.06
same,particle induced Cyp1A1 gene expression (result in words),CYP1A1 gene expression; indoor as well as outdoor model particles,capable to inhibit
same,"CYP1A1 gene expression, Induction mean ± SE","CYP1A1 gene expression; 6 h, untreated = 1, particles alone 2.70 ± 0.00",0.05 ± 0.00
same,"CYP1A1 gene expression, Induction mean ± SE","CYP1A1 gene expression; 24 h, untreated = 1, particles alone 2.90 ± 0.00",0.20 ± 0.00
"CC1(C)CCC[C@]2(C)C3CC(=O)O[C@]3(C)CC[C@@H]12 (stereo partly drawn) [Sclareolide, (3aR,5aS,9aS,9bR)-decahydro-3a,6,6,9a-tetramethyl-naphtha[2,1-b]furan-2(1H)-one]",particle induced MMP1 gene expression (result in words),MMP1 gene expression,capable to inhibit
same,MMP-1 24 h gene expression,MMP1 gene expression; 0.00001%,1.41 ± 0.04
same,MMP-1 24 h gene expression,MMP1 gene expression; 0.00005%,1.29 ± 0.02
same,particle induced POMC gene expression (result in words),POMC gene expression,capable to inhibit
same,POMC 24 h gene expression,"POMC gene expression; 10 μM, SRM1650b, untreated = 1, particles alone 1.50 ± 0.06",1.03 ± 0.07
same,POMC 24 h gene expression,"POMC gene expression; 10 μM, SRM2975, untreated = 1, particles alone 1.30 ± 0.00",0.73 ± 0.06
same,Relative luciferase activity (fold of DMSO control),"AhR; 10 μM + 1 μM BaP, DMSO = 1.00, BaP alone 20.78 ± 1.04",12.28 ± 4.90 fold of DMSO control
same,Relative luciferase activity (fold of DMSO control),"AhR; 20 μM + 1 μM BaP, DMSO = 1.00, BaP alone 20.78 ± 1.04",9.60 ± 1.32 fold of DMSO control
same,Relative luciferase activity (fold of DMSO control),"AhR; 20 μM alone, no BaP, DMSO = 1.00",1.06 ± 0.45 fold of DMSO control
same,particle induced IL-6 gene expression (result in words),IL-6 gene expression,capable to inhibit
same,IL-6 6 h gene expression,"IL-6 gene expression; 0.00001%, untreated = 1, particles alone 1.90 ± 0.04",1.53 ± 0.04
same,IL-6 6 h gene expression,"IL-6 gene expression; 0.00005%, untreated = 1, particles alone 1.90 ± 0.04",1.42 ± 0.02
same,POMC normalized to control,"POMC protein level; 10 μM Sclareolide added 2 h before SRM 1650b 1.5 μg/cm2, 24 hours, control = 1.00, particles alone 1.43 ± 0.082",1.22 ± 0.009
same,particle induced POMC release (result in words),POMC protein level; SRM 1650b,capable to inhibit

# — patent US10357447B2, “Cosmetic compositions comprising sclareolide” (Symrise AG, priority 2015, dated 2019)
